Patent publication US11337921B2, “Multi-use torasemide composition” (VETOQUINOL SA, priority 2018, dated 2022)

Assay: Solubility of torasemide as a function of pH
Type: physicochemical
Settings: pH between about 2 and 7 (FIG. 1)
Excerpt: Moreover, the solubility of torasemide depends on the pH of the solution. The stability of torasemide in solution is, moreover, a function of the additives and excipients used in the composition. Thus, torasemide is insoluble at a pH between about 2 and 7 (FIG. 1).

Compound: Cc1cccc(Nc2ccncc2S(=O)(=O)NC(=O)NC(C)C)c1 [torasemide, 1-isopropyl-3-[(4-m-toluidino-3-pyridyl)sulfonyl]urea]
- Solubility of torasemide: insoluble
